Activity calls are given as the source filed them. The calls are words filed in the database; no cut-off is given here.
Assays:
[1] = target: T1, Estrogen receptor (Homo sapiens, UniProt Q92731+P03372); conditions: ishikawa
Description: Inhibition of estrogen receptor in Ishikawa cells

[2] = target: T1, Estrogen receptor; conditions: mcf7
Description: Inhibition of estrogen receptor in MCF7 cells

[3] = tested on: Rattus norvegicus; assay: (§1) Ability to block estrone-induced increase in uterine wet weight in immature rat at […], po after 3 days by uterotropic assay; assay type: functional; conditions: 72 h
[4] = tested on: Rattus norvegicus; assay: Ability to block estrone-induced increase in uterine wet weight in immature rat at 0.42 mg/kg/day, po after 3 days by uterotropic assay; assay type: functional; conditions: 72 h
[5] = tested on: Rattus norvegicus; assay: as §1; assay type: functional; conditions: 72 h; remark: listed apart in the source
[6] = species on record: Rattus norvegicus; assay: Inhibition of bone loss in ovariectomized rat; assay type: functional, organism-based
[7] = species on record: Rattus norvegicus; assay: Reduction in serum cholesterol level in ovariectomized rat; assay type: functional; parameters: scale not given: the % may be the effect or the level left
[8] = species on record: Rattus norvegicus; assay: Ability to suppress increase of tail skin temperature in morphine-dependent rat; assay type: functional, organism-based
[9] = Bioavailability in rat plasma; assay type: ADME, organism-based
[10] = target: T2, Estrogen receptor (Homo sapiens, UniProt P03372)
T2 sequence (P03372 whole entry): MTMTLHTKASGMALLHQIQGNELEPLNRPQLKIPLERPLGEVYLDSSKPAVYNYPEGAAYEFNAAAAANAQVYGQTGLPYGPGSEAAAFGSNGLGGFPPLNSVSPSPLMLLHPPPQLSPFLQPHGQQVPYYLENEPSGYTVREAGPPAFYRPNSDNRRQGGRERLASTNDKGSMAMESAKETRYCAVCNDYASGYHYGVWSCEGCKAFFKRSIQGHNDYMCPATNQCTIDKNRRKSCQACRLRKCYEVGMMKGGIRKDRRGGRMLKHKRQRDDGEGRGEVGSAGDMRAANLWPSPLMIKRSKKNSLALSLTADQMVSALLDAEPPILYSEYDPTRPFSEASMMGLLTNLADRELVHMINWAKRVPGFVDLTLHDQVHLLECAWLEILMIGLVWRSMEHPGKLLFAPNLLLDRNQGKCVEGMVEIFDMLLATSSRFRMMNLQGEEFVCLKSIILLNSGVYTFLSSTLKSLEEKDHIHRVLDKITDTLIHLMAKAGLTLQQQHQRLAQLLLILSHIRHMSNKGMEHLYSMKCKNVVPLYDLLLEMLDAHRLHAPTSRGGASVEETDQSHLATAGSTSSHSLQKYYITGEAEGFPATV
Description: Binding affinity to ERalpha

[11] = target: Estrogen receptor beta (Homo sapiens, UniProt Q92731)
Chain of Estrogen receptor beta (Q92731 whole entry): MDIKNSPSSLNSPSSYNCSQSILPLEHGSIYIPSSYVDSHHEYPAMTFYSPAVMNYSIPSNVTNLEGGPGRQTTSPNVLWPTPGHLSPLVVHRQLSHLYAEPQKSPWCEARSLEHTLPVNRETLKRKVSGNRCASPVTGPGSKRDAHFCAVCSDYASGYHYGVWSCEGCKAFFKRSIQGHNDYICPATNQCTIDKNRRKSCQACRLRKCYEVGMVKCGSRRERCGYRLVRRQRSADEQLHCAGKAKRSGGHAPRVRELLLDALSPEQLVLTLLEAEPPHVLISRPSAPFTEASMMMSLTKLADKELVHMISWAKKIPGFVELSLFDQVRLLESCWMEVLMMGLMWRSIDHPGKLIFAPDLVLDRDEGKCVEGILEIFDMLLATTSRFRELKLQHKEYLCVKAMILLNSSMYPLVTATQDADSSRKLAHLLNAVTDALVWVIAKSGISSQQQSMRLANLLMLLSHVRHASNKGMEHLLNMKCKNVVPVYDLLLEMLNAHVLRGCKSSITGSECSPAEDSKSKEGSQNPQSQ
Description: Binding affinity to ERbeta

[12] = target: T1, Estrogen receptor; assay: Agonist activity at estrogen receptor in MCF7 cells; assay type: functional, cell-based
[13] = tested on: Rattus norvegicus; assay: (§2) Increase in vaginal fluid in ovariectomized rat at […], po; assay type: functional, organism-based; parameters: dose 0.14 mg/kg
[14] = tested on: Rattus norvegicus; assay: as §2; assay type: functional, organism-based; parameters: dose 1.4 mg/kg
[15] = tested on: Rattus norvegicus; assay: Ability to suppress increase of tail skin temperature in morphine-dependent rat at […].day, po; assay type: functional, organism-based; parameters: dose 1.4 mg/kg

Structure (SMILES) | IC50 [1] | IC50 [2] | inhibition in vivo at […] [3] | inhibition in vivo at 0.42 mg/kg/day [4] | inhibition in vivo at […] [5] | Activity [6] | Activity [7] | Activity [8] | bioavailability [9] | IC50 [10] | IC50 [11] | EC50 [12] | Activity [13] | Activity [14] | Activity [15]
Oc1ccc2c(c1)OC(c1ccc(OCCN3CCCCC3)cc1)C1=C2COc2cc(O)ccc21 (stereo not drawn) | 12 nM | 110 nM | – | – | – | – | – | – | – | – | – | – | – | – | –
CC(C)(C)C(=O)Oc1ccc2c(c1)O[C@@H](c1ccc(OCCN3CCCCC3)cc1)C1=C2COc2cc(OC(=O)C(C)(C)C)ccc21 | 99 nM | 670 nM | 55% | 88% | 100% | Dose-dependent effect | 33% | inactive | 9% | > 1000 nM | > 10000 nM | – | – | – | –
CN(C)c1ccc(C2Oc3cc(O)ccc3C3=C2c2ccc(O)cc2OC3)cc1 (stereo not drawn) | 3800 nM | – | – | – | – | – | – | – | – | – | – | 71 nM | – | – | –
Oc1ccc2c(c1)O[C@H](c1ccc(OCCN3CCCCC3)cc1)C1=C2COc2cc(O)ccc21 | 43.3 nM | 599 nM | – | – | – | – | – | – | – | 51 nM | 20.3 nM | – | – | – | –
CC(C)(C)C(=O)Oc1ccc2c(c1)O[C@H](c1ccc(OCCN3CCCCC3)cc1)C1=C2COc2cc(OC(=O)C(C)(C)C)ccc21 | 175 nM | 510 nM | 27% | 55% | 75% | Dose-dependent effect | 33% | – | 11% | > 10000 nM | > 10000 nM | – | Active | Active | Active
Oc1ccc2c(c1)O[C@@H](c1ccc(OCCN3CCCCC3)cc1)C1=C2COc2cc(O)ccc21 | 17.1 nM | 416 nM | – | – | – | – | – | – | – | 0.61 nM | 1.3 nM | – | – | – | –
CN(C)CCOc1ccc(C2Oc3cc(O)ccc3C3=C2c2ccc(O)cc2OC3)cc1 (stereo not drawn) | 180 nM | 220 nM | – | – | – | – | – | – | – | – | – | – | – | – | –
